According to US20100087466A1, “NOVEL SMALL MOLECULE DNAK INHIBITORS” (priority 2008, published 2010):
Values after ≈ are worked out from the molar mass of the structure shown. Structures can show the parent of a compound that is named as a salt. Where two headings read alike, the source gives them in different places. Non-standard residues stand in square brackets, D forms with d. Residues, ends and D or L forms follow the SMILES beside them. ξ: configuration not given here. *: point of attachment. Phe(4-NH2) = Nc1ccc(C[C@H](N)C(=O)O)cc1; 2Nal = N[C@@H](Cc1ccc2ccccc2c1)C(=O)O; Hydrocinnamoyl = O=C(CCc1ccccc1)*; Hyp = O=C(O)[C@@H]1C[C@@H](O)CN1; NH(CH2)3Ph = c1ccc(CCCN*)cc1; 2Pyrimidinyl = c1cnc(*)nc1; ξR = N=C(N)NCCCC(N)C(=O)O; Octanoyl = CCCCCCCC(=O)*; Orn = NCCC[C@H](N)C(=O)O; Piperidide = C1CCN(*)CC1; Cbz = O=C(OCc1ccccc1)*; Boc = CC(C)(C)OC(=O)*; Bn = c1ccc(C*)cc1; NHBu = CCCCN*

What was measured:
DnaK = DnaK (Escherichia coli, UniProt P0A6Y8); test: DnaK Inhibition Assay (DnaK induced refolding of denatured firefly luciferase); type: biochemical, E. coli; settings: DnaK 200 nM, DnaJ 100 nM, GrpE 400 nM
Experimental: Inhibition of the bacterial DnaK chaperone system may be evaluated by inhibition of the DnaK induced refolding of denatured firefly luciferase. More specifically, firefly luciferase is denatured by treatment with 8N guanidium hydrochloride at room temperature for 30 mins and then 5° C. for 1 h. After dilution into cold MOPS buffer augmented with ATP (2.5 mM) and DTT (12.5 mM) and standing for a further hour, the denatured luciferase is refolded by addition to a mixture of chaperone proteins in MOPS buffer, resulting in a reaction mixture containing denatured luciferase (24 nM), DnaK (200 nM), DnaJ (100 nM) and GrpE (400 nM). The extent of refolding is determined by addition of a luciferase substrate and measurement of the emitted chemoluminescence. In this format the substrate is the commercially available luciferase “Steady-Glo” reagent from Promega, Inc. Inhibition of DnaK induced refolding is determined by premixing the chaperone proteins with the test agent at concentrations of test agent ranging from 1-100 μg/mL. The extent of refolding is compared to that with no test reagent, and the IC50 is estimated by fitting the data to a standard sigmoidal dose-response curve.
Inhibition of the bacterial DnaK chaperone system was evaluated by inhibition of the DnaK induced refolding of denatured firefly luciferase. Firefly luciferase was denatured by treatment with 8N guanidium hydrochloride at room temperature for 30 mins and then 5° C. for 1 h. After dilution into cold MOPS buffer augmented with ATP (2.5 mM) and DTT (12.5 mM) and standing for a further hour, the denatured luciferase was refolded by addition to a mixture of chaperone proteins in MOPS buffer, resulting in a reaction mixture containing denatured luciferase (24 nM), DnaK (200 nM), DnaJ (100 nM) and GrpE (400 nM). The extent of refolding was determined by addition of a luciferase substrate and measurement of the emitted chemoluminescence. In this format the substrate is the commercially available luciferase “Steady-Glo” reagent from Promega, Inc. Inhibition of DnaK induced refolding was determined by premixing the chaperone proteins with the test agent at concentrations of test agent ranging from 1-100 μg/mL. The extent of refolding was compared to that with no test reagent, and the IC50 was estimated by fitting the data to a standard sigmoidal dose-response curve.
IC50 is defined as the concentration in μM at which 50% inhibition of DnaK induced refolding of denatured firefly luciferase occurs.

E. coli (ATCC 25922) = test: Antibacterial activity against E. coli (MIC); type: cell-based; settings: for MIC: Escherichia coli, ATCC25922
[1] = read-out: DnaK IC50(μg/ml) (converted)

DnaK, sequence (P0A6Y8 2-638): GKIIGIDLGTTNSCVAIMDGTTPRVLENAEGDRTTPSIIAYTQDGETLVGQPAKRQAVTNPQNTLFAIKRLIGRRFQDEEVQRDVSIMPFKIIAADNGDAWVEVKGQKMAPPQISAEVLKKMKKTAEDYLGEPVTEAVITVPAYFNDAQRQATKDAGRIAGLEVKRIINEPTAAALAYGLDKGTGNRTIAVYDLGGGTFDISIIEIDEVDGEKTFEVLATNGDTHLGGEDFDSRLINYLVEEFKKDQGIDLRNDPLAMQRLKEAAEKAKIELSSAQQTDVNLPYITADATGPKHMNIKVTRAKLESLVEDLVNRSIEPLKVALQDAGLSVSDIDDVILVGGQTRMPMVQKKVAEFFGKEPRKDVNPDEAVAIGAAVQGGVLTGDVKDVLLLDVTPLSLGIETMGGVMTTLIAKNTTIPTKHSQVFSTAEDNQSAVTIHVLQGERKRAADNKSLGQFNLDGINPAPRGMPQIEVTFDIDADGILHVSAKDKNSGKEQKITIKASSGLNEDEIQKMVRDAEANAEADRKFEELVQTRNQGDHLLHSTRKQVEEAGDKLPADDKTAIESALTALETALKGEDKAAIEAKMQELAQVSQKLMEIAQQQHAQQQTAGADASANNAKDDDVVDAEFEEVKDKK

`CCCCNC(=O)[C@@H]1CCCN1C(=O)[C@H](CCCNC(=N)N)NC(=O)[C@@H]1CCCN1C(=O)[C@H](CC(C)C)NC(=O)[C@H](Cc1ccc(O)cc1)NC(C)=O` [Structure 15, Ac-Tyr-Leu-Pro-Arg-Pro-NHBu.TFA] (Ac-YLPRP-NHBu) showed an IC50 (DnaK; read-out: DnaK IC50) of 24 µM and an IC50 (DnaK; [1]) of 39.1 µM.
`CC(C)C[C@H](NC(=O)CCc1ccccc1)C(=O)N1CCC[C@H]1C(=O)N[C@@H](CCCNC(=N)N)C(=O)N1CCCCC1` [Structure 13, Ph(CH2)2C(O)-Leu-Pro-Arg-N(CH2)5] (Hydrocinnamoyl-Leu-Pro-Arg-Piperidide) was tested, and the IC50 (DnaK; read-out: DnaK IC50) was 12 µM and the IC50 (DnaK; [1]) was 29.1 µM.
For `CCCCCCCC(=O)N[C@@H](Cc1ccc(OCc2ccccc2)cc1)C(=O)N[C@@H](CC(C)C)C(=O)N1CCC[C@H]1C(=O)N1CC[C@H](NC(=N)N)C1` [Structure 29, Octanoyl-Tyr(Bzl)-Leu-Pro-(S)-(3-guanidino)pyrrolidinyl amide], the IC50 (DnaK; read-out: DnaK IC50) was 10 µM, the IC50 (DnaK; [1]) was 11.1 µM and the MIC (E. coli (ATCC 25922)) was 32 µg/mL (≈ 44.6 µM).
Work on `CCC(C)[C@H](NC(=O)[C@H](Cc1ccc(O)cc1)NC(C)=O)C(=O)N[C@@H](CO)C(=O)OC` (stereo partly drawn) [Structure 23, Ac-Tyr-Ile-Ser-OMe] yielded an IC50 (DnaK; read-out: DnaK IC50) of 101 µM and an IC50 (DnaK; [1]) of 530 µM.
`CCCCCCCC(=O)N[C@@H](Cc1ccc(O)cc1)C(=O)N[C@@H](CC(C)C)C(=O)N1CCC[C@H]1C(=O)N[C@H](CCCNC(=N)N)C(=O)N1CCCCC1` [Structure 27, Octanoyl-Tyr-Leu-Pro-Arg-N(CH2)5 trifluoroacetate] (Octanoyl-YLP[dR]-Piperidide) was tested, and the IC50 (DnaK; read-out: DnaK IC50) was 8 µM and the IC50 (DnaK; [1]) was 9.45 µM.
`CC(=O)N[C@@H](Cc1ccc(OCc2ccccc2)cc1)C(=O)N[C@@H](CC(C)C)C(=O)N1CCC[C@H]1C(=O)NCCCCN` [Structure 5, Ac-Tyr(Bzl)-Leu-Pro-NH(CH2)4NH2.TFA] showed an IC50 (DnaK; read-out: DnaK IC50) of 45 µM and an IC50 (DnaK; [1]) of 106 µM.
`CCC(C)[C@H](NC(=O)[C@H](Cc1ccc(O)cc1)NC(C)=O)C(=O)N[C@@H](CO)C(=O)O` (stereo partly drawn) [Structure 24, Ac-Tyr-Ile-Ser-OH] showed an IC50 (DnaK; read-out: DnaK IC50) of 240 µM and an IC50 (DnaK; [1]) of 309 µM.
Work on `CC(=O)N[C@@H](Cc1ccc(O)cc1)C(=O)N[C@@H](CC(C)C)C(=O)N1CCC[C@H]1C(=O)N[C@@H](CCCNC(=O)OC(C)(C)C)C(=O)N1CCC[C@H]1C(=O)NCCCc1ccccc1` [Structure 18, Ac-Tyr-Leu-Pro-Orn(Boc)-Pro-NH(CH2)3Ph] (Ac-YLP[Orn](Boc)P-{NH(CH2)3Ph}) yielded an IC50 (DnaK; read-out: DnaK IC50) of 54 µM and an IC50 (DnaK; [1]) of 63.8 µM.
For `CC(=O)N[C@@H](Cc1ccc(NC(=O)OCc2ccccc2)cc1)C(=O)N[C@@H](CC(C)C)C(=O)N1CCC[C@H]1C(=O)O` [Structure 7, Ac-4-(NHCbz)Phe-Leu-Pro-OH] (Ac-[Phe(4-NH2)](Cbz)-Leu-Pro-OH), the IC50 (DnaK; read-out: DnaK IC50) was 72 µM and the IC50 (DnaK; [1]) was 224 µM.
In the case of “3-(Octylamido)-nicotinoyl-Tyr(Bzl)-Leu-Pro-Arg-OMe trifluoroacetate [Structure 31]”, the “DnaK IC50(μg/ml)” value (DnaK) is reported as 10 µg/mL, the IC50 (DnaK; read-out: DnaK IC50) is reported as 10 µM and the “E. coli (ATCC 25922) MIC” value (E. coli (ATCC 25922); ATCC 25922) is reported as 32 µg/mL.
`CC(=O)N[C@@H](Cc1ccc(OCc2ccccc2)cc1)C(=O)N[C@@H](CC(C)C)C(=O)N1CCC[C@H]1C(=O)N[C@@H](CCCNC(=O)OC(C)(C)C)C(=O)N1CCC[C@H]1C(=O)NCCCc1ccccc1` [Structure 17, Ac-Tyr(Bzl)-Leu-Pro-Orn(Boc)-Pro-NH(CH2)3Ph] (Ac-Y(Bn)LP[Orn](Boc)P-{NH(CH2)3Ph}) showed an IC50 (DnaK; read-out: DnaK IC50) of 21 µM and an IC50 (DnaK; [1]) of 20 µM.
For `CCCCCCCC(=O)N[C@@H](Cc1ccc(OCc2ccccc2)cc1)C(=O)N[C@@H](CC(C)C)C(=O)N1C[C@H](O)C[C@H]1C(=O)N[C@H](CCCNC(=N)N)C(=O)N1CCCCC1` [Structure 32, Octanoyl-Tyr(Bzl)-Leu-Hyp-ArgN(CH2)5 trifluoroacetate] (Octanoyl-Y(Bn)L[Hyp][dR]-Piperidide), the IC50 (DnaK; read-out: DnaK IC50) was 12 µM, the IC50 (DnaK; [1]) was 14.2 µM and the MIC (E. coli (ATCC 25922)) was 64 µg/mL.
`COC(=O)[C@@H]1CCCN1C(=O)[C@H](CC(C)C)NC(=O)[C@H](Cc1ccc2ccccc2c1)NC(C)=O` [Structure 8, Ac-2-Nal-Leu-Pro-OMe] (Ac-[2Nal]-Leu-Pro-OMe) showed an IC50 (DnaK; read-out: DnaK IC50) of 30 µM and an IC50 (DnaK; [1]) of 127 µM.
With `CC(=O)N[C@@H](Cc1ccc(OCc2ccccc2)cc1)C(=O)N[C@@H](CC(C)C)C(=O)N1CCC[C@H]1C(=O)N[C@@H](CCCNC(=N)N)C(=O)N1CCCCC1` [Structure 14] (Ac-Y(Bn)LPR-Piperidide) the IC50 (DnaK; read-out: DnaK IC50) was 25 µM and the IC50 (DnaK; [1]) was 37.5 µM.
`CC(=O)N[C@@H](Cc1ccc(OCc2ccccc2)cc1)C(=O)N[C@@H](CC(C)C)C(=O)N1CCC[C@H]1C(=O)N[C@@H](CCCNc1ncccn1)C(=O)N1CCC[C@H]1C(=O)NCCCc1ccccc1` [Structure 21, Ac-Tyr(Bzl)-Leu-Pro-Orn(2-pyrimidine)-Pro-NH(CH2)3Ph] (Ac-Y(Bn)LP[Orn](2Pyrimidinyl)P-{NH(CH2)3Ph}) was tested, and the IC50 (DnaK; read-out: DnaK IC50) was 22 µM and the IC50 (DnaK; [1]) was 22.6 µM.
With `CC(=O)N[C@@H](Cc1ccc(O)cc1)C(=O)N[C@@H](CC(C)C)C(=O)N1CCC[C@H]1C(=O)N[C@@H](CCCNC(=N)N)C(=O)N1CCCCC1` [Structure 4, Ac-Tyr-Leu-Pro-Arg-N(CH2)5.TFA] (Ac-YLPR-Piperidide) the IC50 (DnaK; read-out: DnaK IC50) was 3 µM and the IC50 (DnaK; [1]) was 6.09 µM.
Work on `CC(=O)N[C@@H](Cc1ccc(O)cc1)C(=O)N[C@@H](CC(C)C)C(=O)N1CCC[C@H]1C(=O)N[C@@H](CCCNC(=N)N)C(=O)N1CCC[C@H]1C(=O)NCCCc1ccccc1` [Structure 16, Ac-Tyr-Leu-Pro-Arg-Pro-NH(CH2)3Ph.TFA] (Ac-YLPRP-{NH(CH2)3Ph}) yielded an IC50 (DnaK; read-out: DnaK IC50) of 24 µM and an IC50 (DnaK; [1]) of 32.3 µM.
`CC(=O)N[C@@H](Cc1ccc(OCc2ccccc2)cc1)C(=O)N[C@@H](CC(C)C)C(=O)N1CCC[C@H]1C(=O)N[C@@H](CCCN)C(=O)N1CCC[C@H]1C(=O)NCCCc1ccccc1` [Structure 20, Ac-Tyr(Bzl)-Leu-Pro-Orn-Pro-NH(CH2)3Ph] (Ac-Y(Bn)LP[Orn]P-{NH(CH2)3Ph}) was tested, and the IC50 (DnaK; read-out: DnaK IC50) was 16 µM and the IC50 (DnaK; [1]) was 20 µM.
`COC(=O)[C@@H]1CCCN1C(=O)[C@H](CC(C)C)NC(=O)[C@H](Cc1ccc(NC(=O)OCc2ccccc2)cc1)NC(C)=O` [Structure 6, Ac-4-(NHCbz)Phe-Leu-Pro-OMe] (Ac-[Phe(4-NH2)](Cbz)-Leu-Pro-OMe) was tested, and the IC50 (DnaK; read-out: DnaK IC50) was 147 µM and the IC50 (DnaK; [1]) was 420 µM.
`CC(=O)N[C@@H](Cc1ccc(O)cc1)C(=O)N[C@@H](CC(C)C)C(=O)N1CCC[C@H]1C(=O)N[C@@H](CCCN)C(=O)N1CCC[C@H]1C(=O)NCCCc1ccccc1` [Structure 19, Ac-Tyr-Leu-Pro-Orn-Pro-NH(CH2)3Ph] (Ac-YLP[Orn]P-{NH(CH2)3Ph}) gave an IC50 (DnaK; read-out: DnaK IC50) of 40 µM and an IC50 (DnaK; [1]) of 60.4 µM.
With `CC(C)C[C@H](NC(=O)[C@H](Cc1ccc(O)cc1)NC(=O)OC(C)(C)C)C(=O)N1CCC[C@H]1C(=O)N[C@@H](CCCNC(=N)N)C(=O)N1CCC[C@H]1C(=O)NCCCc1ccccc1` [Structure 12, Boc-Tyr-Leu-Pro-Arg-Pro-NH(CH2)3Ph] (Boc-YLPRP-{NH(CH2)3Ph}) the IC50 (DnaK; read-out: DnaK IC50) was 11 µM and the IC50 (DnaK; [1]) was 12.8 µM.
Compound `CC(=O)N[C@@H](Cc1ccc(O)cc1)C(=O)N[C@@H](CC(C)C)C(=O)N1CCC[C@H]1C(=O)NC(CCCNC(=N)N)C(N)=O` (some centres unmarked) [Structure 34] (Ac-YLP[ξR]-NH2) has an MIC (E. coli (ATCC 25922)) of over 256 µg/mL.
“Ac-YLPRP-NH2 [Structure 1, Ac-Tyr-Leu-pro-Arg-Pro-NH2]” was tested, and the IC50 (DnaK; read-out: DnaK IC50) was 58 µM and the IC50 (DnaK; [1]) was 67.1 µM.
For `CC(=O)N[C@@H](Cc1ccc2ccccc2c1)C(=O)N[C@@H](CC(C)C)C(=O)N1CCC[C@H]1C(=O)O` [Structure 9] (Ac-[2Nal]-Leu-Pro-OH), the IC50 (DnaK; read-out: DnaK IC50) was 62 µM and the IC50 (DnaK; [1]) was 282 µM.
